Experimental data reported in article PMC7838034 (Acta Pharmaceutica Sinica. B, 2020).

Assays:
PARP1 = PARP1 (Homo sapiens, UniProt P09874); experiment: PARP1 inhibition assay; type: biochemical; settings: tested in duplicate, average
[1] = biological target: recombinant BRD4(BD1 + BD2) (Homo sapiens, UniProt O60885); experiment: BRD4 inhibition assay; type: binding
MDA-MB-468 cells [2] = experiment: Cell viability assay; type: cell-based, human; settings: Homo sapiens, MDA-MB-468, 24 h, read-out: Anti-proliferative activity (IC50)
MDA-MB-468 cells [3] = experiment: Annexin V-FITC/PI apoptosis assay; type: cell-based, human; settings: 1, 3.3 and 10 μmol/L
[4] = Pharmacokinetic study, oral; type: in vivo, Sprague–Dawley rats
[5] = tested on: protein expression in MDA-MB-468 cells; experiment: Western blot analysis; type: cell-based, human
MDA-MB-468 cells [6] = experiment: Colony formation assay; type: cell-based, human; settings: compared with DMSO-treated control
MCF-7 cells = experiment: Annexin V-FITC/PI apoptosis assay; type: cell-based, human
[7] = HE staining of major organs of xenograft mice; type: in vivo, nude mice (BALB/c); settings: after 19d treatment, all groups of both xenograft models
[8] = tested on: BRD4 and PARP1 in MDA-MB-468 tumor tissues; experiment: IHC staining of tumor tissue; type: in vivo, nude mice (BALB/c); settings: 40 mg/kg, compared with control group
[9] = tested on: BRD4 and PARP1 in MCF-7 tumor tissues; experiment: IHC staining of tumor tissue; type: in vivo, nude mice (BALB/c); settings: 19d treatment groups
MCF-7 tumor xenograft = experiment: MCF-7 breast cancer xenograft model
[10] = tested on: MDA-MB-468 tumor xenograft; experiment: MDA-MB-468 breast cancer xenograft model
[11] = male, Sprague-Dawley, rat, plasma, po, 10 mg/kg

PARP1, sequence (P09874 whole entry): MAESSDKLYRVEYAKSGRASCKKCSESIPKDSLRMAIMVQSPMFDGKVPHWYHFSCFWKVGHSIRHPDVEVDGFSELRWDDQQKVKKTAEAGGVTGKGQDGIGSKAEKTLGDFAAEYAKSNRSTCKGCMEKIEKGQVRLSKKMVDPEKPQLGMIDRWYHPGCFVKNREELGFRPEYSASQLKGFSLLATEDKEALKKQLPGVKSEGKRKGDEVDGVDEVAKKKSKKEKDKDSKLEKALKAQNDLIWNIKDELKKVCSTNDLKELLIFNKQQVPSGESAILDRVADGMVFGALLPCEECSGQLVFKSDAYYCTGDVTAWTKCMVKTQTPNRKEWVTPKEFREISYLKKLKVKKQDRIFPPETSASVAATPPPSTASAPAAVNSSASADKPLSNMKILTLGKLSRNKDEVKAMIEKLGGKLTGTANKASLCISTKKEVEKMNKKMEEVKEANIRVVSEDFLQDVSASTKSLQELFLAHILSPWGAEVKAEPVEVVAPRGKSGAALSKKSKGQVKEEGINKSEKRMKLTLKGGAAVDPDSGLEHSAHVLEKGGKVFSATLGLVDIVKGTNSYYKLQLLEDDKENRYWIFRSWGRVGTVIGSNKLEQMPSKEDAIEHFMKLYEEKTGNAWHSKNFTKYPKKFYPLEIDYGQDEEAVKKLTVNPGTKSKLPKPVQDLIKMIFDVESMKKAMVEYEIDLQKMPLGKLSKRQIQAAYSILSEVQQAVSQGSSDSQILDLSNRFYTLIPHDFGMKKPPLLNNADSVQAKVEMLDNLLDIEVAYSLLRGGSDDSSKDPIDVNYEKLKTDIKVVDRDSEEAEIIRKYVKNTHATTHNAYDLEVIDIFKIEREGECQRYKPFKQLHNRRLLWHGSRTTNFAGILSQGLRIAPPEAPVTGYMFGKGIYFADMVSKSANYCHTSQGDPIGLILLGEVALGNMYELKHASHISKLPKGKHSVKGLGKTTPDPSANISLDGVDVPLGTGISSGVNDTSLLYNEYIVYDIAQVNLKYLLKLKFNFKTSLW

## COc1cc(OC)c2c(=O)[nH]c(-c3ccc(OCCOc4ccccc4C(N)=O)cc3)nc2c1 [Compound 19d, 2-(2-(4-(5,7-Dimethoxy-4-oxo-3,4-dihydroquinazolin-2-yl)phenoxy)ethoxy)benzamide]
PARP1; read-out: Inhibition rate PARP1, 1 μmol/L
  inhibition at 1 µM: 37%
PARP1; read-out: Inhibition rate PARP1, 10 μmol/L
  inhibition at 10 µM: 88%
[1]; ratio of BRD4 IC50 values
  improved efficacy against BRD4 than RVX-208: > 30 fold
[1]; read-out: Inhibition rate BRD4, 1 μmol/L, tested in duplicate, average
  inhibition at 1 µM: 69%
[1]; read-out: Inhibition rate BRD4, 10 μmol/L, tested in duplicate, average
  inhibition at 10 µM: 92%
MDA-MB-468 cells [2]
  IC50: 3.4 ± 1.1 µM
MDA-MB-468 cells [3]
  apoptosis induction: induced apoptosis in a dose-dependent manner
[4]; SD rats, p.o. 10 mg/kg, n = 3, mean ± SD
  AUC0−∞: 144.72 ± 25.51 ng·h/mL
[4]; [11]
  AUC(0-t): 114 ± 15.8 ng·h/mL
  MRT inf: 5.35 ± 0.44 h
[5]; 2 μmol/L, 24 h
  PAR expression: effective downregulation
  c-Myc expression: higher c-Myc inhibition efficiency than RVX-208
[5]; 1, 3.3 and 10 μmol/L
  BAX and active form of caspase-3 expression: increased
  BCL-2 expression: remarkably downregulated
[5]; 1, 3.3 and 10 μmol/L, 24 h
  expression of c-Myc and PAR: decreased the expression of c-Myc and PAR in a dose-dependent manner
MDA-MB-468 cells [6]
  colony counts: remarkably decreased the colony counts
MCF-7 cells
  apoptosis induction: no significant changes
[7]
  histological changes in major organs (HE): no visible histological changed
[8]
  expression levels of BRD4 and PARP1 in tumor tissues: effectively suppressed
[9]
  expression levels of BRD4 and PARP1 in tumor tissues: slightly downregulated
MCF-7 tumor xenograft; 80 mg/kg oral, once a day
  TGI rate: 48.3%
MCF-7 tumor xenograft; 20, 40 and 80 mg/kg oral
  toxicity (body weight) of the dosages used: no apparent toxicity
[10]; 80 mg/kg oral, once a day
  tumor growth inhibition (TGI): 55.3%
[10]; 20, 40 and 80 mg/kg oral
  body weight change and death during treatment: slight body weight change and no death of mice
